Source: patent EP2768830B1, “APOPTOSIS-INDUCING AGENTS FOR THE TREATMENT OF CANCER AND IMMUNE AND AUTOIMMUNE DISEASES” (AbbVie Inc., priority 2011, dated 2013)
Like-named read-outs stand apart in the source and are kept apart here.

Experiments:
[1] = tested on: mouse FL5.12 cells transfected with Bcl-XL; test: FL5.12 cellular assay (cell viability, CellTiter-Glo); type: cell-based; settings: FL5.12 cells transfected with Bcl-XL, IL-3-depleted, 3% FBS assay media, 24 hours, CellTiter-Glo, read-out: FL5.12 Bcl-xL, - IL3, EC 50;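 note: each EC50 determination derived from duplicate measurements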
Procedure: For assaying the compound activity, the cells were exchanged into an IL-3-depleted deprivation media, which was identical to the growth media except for the absence of FBS and WEHI-3B conditional media, for 2 days. Then the cells were exchanged to 3% FBS assay media (RPMI with 2 mM glutamine, 1% 100 mM sodium pyruvate, 2% 1 M HEPES, 4 µL/L of β-mercaptoethanol, 1% penicillin-streptomycin, 3% FBS). Compounds in series dilutions were added, and the cells were cultured for 24 hours. Compounds in series dilutions were added, and the cells were cultured for 24 hours. Cell viability was assayed using the CellTiter-Glo assay (Promega Corp., Madison, WI) according to the manufacturer instructions. Individual determinations were the result of duplicate values.

GST-Bcl-xL = GST-Bcl-xL (Homo sapiens, UniProt Q07817); settings: read-out: TR-FRET binding Bcl-xL Ki
GST-Bcl-xL, sequence (Q07817 whole entry): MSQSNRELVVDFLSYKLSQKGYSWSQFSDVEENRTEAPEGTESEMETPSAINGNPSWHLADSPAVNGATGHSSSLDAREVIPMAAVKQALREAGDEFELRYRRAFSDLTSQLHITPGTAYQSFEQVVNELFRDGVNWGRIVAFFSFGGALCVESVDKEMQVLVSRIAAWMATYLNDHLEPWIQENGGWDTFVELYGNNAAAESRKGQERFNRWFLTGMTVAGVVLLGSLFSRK

SMILES | EC50 ([1]; Mus musculus) | Ki (GST-Bcl-xL) | EC50 [1]
Cc1c(-c2ccc(N3CCc4cccc(C(=O)Nc5nc6ccccc6s5)c4C3)nc2C(=O)O)cccc1N(C)C(=O)C1CCCCC1 [Example 177, 6-[8-(1,3-benzothiazol-2-ylcarbamoyl)-3,4-dihydroisoquinolin-2(1H)-yl]-3-{3-[(cyclohexylcarbonyl)(methyl)amino]-2-methylphenyl}pyridine-2-carboxylic acid] | 24 nM | < 0.1 nM | –
COCCC1(Cn2ncc(-c3ccc(N4CCc5cccc(C(=O)Nc6nc7ccccc7s6)c5C4)nc3C(=O)O)c2C)CCCCCC1 [Example 134, 6-[8-(1,3-benzothiazol-2-ylcarbamoyl)-3,4-dihydroisoquinolin-2(1H)-yl]-3-(1-{[1-(2-methoxyethyl)cycloheptyl]methyl}-5-methyl-1H-pyrazol-4-yl)pyridine-2-carboxylic acid] | 0.9 nM | < 0.1 nM | –
COCCC1(Cn2ncc(-c3ccc(N4CCc5cccc(C(=O)Nc6nc7ccccc7s6)c5C4)nc3C(=O)O)c2C)CCCC(C)(C)C1 (stereo not shown) [Example 146, 6-[8-(1,3-benzothiazol-2-ylcarbamoyl)-3,4-dihydroisoquinolin-2(1H)-yl]-3-(1-{[1-(2-methoxyethyl)-3,3-dimethylcyclohexyl]methyl}-5-methyl-1H-pyrazol-4-yl)pyridine-2-carboxylic acid] | 11 nM | < 0.1 nM | –
Cc1ccc(Oc2ccccc2)cc1-c1ccc(N2CCc3cccc(C(=O)Nc4nc5ccccc5s4)c3C2)nc1C(=O)O [Example 109, 6-[8-(1,3-benzothiazol-2-ylcarbamoyl)-3,4-dihydroisoquinolin-2(1H)-yl]-3-(2-methyl-5-phenoxyphenyl)pyridine-2-carboxylic acid] | > 1000 nM | 49 nM | –
Cc1c(-c2ccc(N3CCc4cccc(C(=O)Nc5nc6ccccc6s5)c4C3)nc2C(=O)O)ccnc1Oc1ccccc1 [Example 142, 6-[8-(1,3-benzothiazol-2-ylcarbamoyl)-3,4-dihydroisoquinolin-2(1H)-yl]-3'-methyl-2'-phenoxy-3,4'-bipyridine-2-carboxylic acid] | > 1000 nM | 0.5 nM | –
Cc1c(-c2ccc(N3CCc4cccc(C(=O)Nc5nc6ccccc6s5)c4C3)nc2C(=O)O)cnn1CC1(OCCCN2CCOCC2)CCCCCC1 [Example 155, 6-[8-(1,3-benzothiazol-2-ylcarbamoyl)-3,4-dihydroisoquinolin-2(1H)-yl]-3-[5-methyl-1-({1-[3-(morpholin-4-yl)propoxy]cycloheptyl}methyl)-1H-pyrazol-4-yl]pyridine-2-carboxylic acid] | 7 nM | < 0.1 nM | –
O=C(Nc1nc2ccccc2s1)c1cccc2c1CN(c1ccc(-c3cnn(Cc4ccc5ccccc5c4)c3)c(C(=O)O)n1)CC2 [Example 28, 6-[8-(1,3-benzothiazol-2-ylcarbamoyl)-3,4-dihydroisoquinolin-2(1H)-yl]-3-[1-(naphthalen-2-ylmethyl)-1H-pyrazol-4-yl]pyridine-2-carboxylic acid] | > 1000 nM | 33 nM | –
O=C(Nc1nc2ccccc2s1)c1cccc2c1CN(c1ccc(-c3cn(Cc4ccccc4)c4cnccc34)c(C(=O)O)n1)CC2 [Example 188, 6-[8-(1,3-benzothiazol-2-ylcarbamoyl)-3,4-dihydroisoquinolin-2(1H)-yl]-3-(1-benzyl-1H-pyrrolo[2,3-c]pyridin-3-yl)pyridine-2-carboxylic acid] | 546 nM | 0.5 nM | –
COCCCC(c1ccccc1)n1cc(-c2ccc(N3CCc4cccc(C(=O)Nc5nc6ccccc6s5)c4C3)nc2C(=O)O)cn1 (stereo not shown) [Example 94, 6-[8-(1,3-benzothiazol-2-ylcarbamoyl)-3,4-dihydroisoquinolin-2(1H)-yl]-3-[1-(4-methoxy-1-phenylbutyl)-1H-pyrazol-4-yl]pyridine-2-carboxylic acid] | 253 nM | 5 nM | –
Cc1c(-c2ccc(N3CCc4cccc(C(=O)Nc5nc6ccccc6s5)c4C3)nc2C(=O)O)cc(C#N)n1CC1(N2CCOCC2)CCCCC1 [Example 168, 6-[8-(1,3-benzothiazol-2-ylcarbamoyl)-3,4-dihydroisoquinolin-2(1H)-yl]-3-(5-cyano-2-methyl-1-{[1-(morpholin-4-yl)cyclohexyl]methyl}-1H-pyrrol-3-yl)pyridine-2-carboxylic acid] | 14 nM | < 0.1 nM | –
Cc1nn(Cc2ccccc2)cc1-c1ccc(N2CCc3cccc(C(=O)Nc4nc5ccccc5s4)c3C2)nc1C(=O)O [Example 19, 6-[8-(1,3-benzothiazol-2-ylcarbamoyl)-3,4-dihydroisoquinolin-2(1H)-yl]-3-(1-benzyl-3-methyl-1H-pyrazol-4-yl)pyridine-2-carboxylic acid] | 398 nM | 28 nM | –
O=C(Nc1nc2ccccc2s1)c1cccc2c1CN(c1ccc(-c3cnn(CC4(c5ccccc5)CCCCC4)c3)c(C(=O)O)n1)CC2 [Example 67, 6-[8-(1,3-benzothiazol-2-ylcarbamoyl)-3,4-dihydroisoquinolin-2(1H)-yl]-3-{1-[(1-phenylcyclohexyl)methyl]-1H-pyrazol-4-yl}pyridine-2-carboxylic acid] | 106 nM | 7 nM | –
Cc1c(-c2ccc(N3CCc4cccc(C(=O)Nc5nc6ccccc6s5)c4C3)nc2C(=O)O)cnn1Cc1ccccc1OCCCN1CCOCC1 [Example 81, 6-[8-(1,3-benzothiazol-2-ylcarbamoyl)-3,4-dihydroisoquinolin-2(1H)-yl]-3-(5-methyl-1-{2-[3-(morpholin-4-yl)propoxy]benzyl}-1H-pyrazol-4-yl)pyridine-2-carboxylic acid] | 37 nM | 0.6 nM | –
COCCCC1(Cn2ncc(-c3ccc(N4CCc5cccc(C(=O)Nc6nc7ccccc7s6)c5C4)nc3C(=O)O)c2C)CCCCCC1 [Example 147, 6-[8-(1,3-benzothiazol-2-ylcarbamoyl)-3,4-dihydroisoquinolin-2(1H)-yl]-3-(1-{[1-(3-methoxypropyl)cycloheptyl]methyl}-5-methyl-1H-pyrazol-4-yl)pyridine-2-carboxylic acid] | – | < 0.1 nM | 1 nM
O=C(Nc1nc2ccccc2s1)c1cccc2c1CN(c1ccc(-c3cnn(C(c4ccccc4)c4ccccc4)c3)c(C(=O)O)n1)CC2 [Example 75, 6-[8-(1,3-benzothiazol-2-ylcarbamoyl)-3,4-dihydroisoquinolin-2(1H)-yl]-3-[1-(diphenylmethyl)-1H-pyrazol-4-yl]pyridine-2-carboxylic acid] | 919 nM | 28 nM | –
CN(C)CCOc1ccccc1Cn1cc(-c2ccc(N3CCc4cccc(C(=O)Nc5nc6ccccc6s5)c4C3)nc2C(=O)O)cn1 [Example 40, 6-[8-(1,3-benzothiazol-2-ylcarbamoyl)-3,4-dihydroisoquinolin-2(1H)-yl]-3-(1-{2-[2-(dimethylamino)ethoxy]benzyl}-1H-pyrazol-4-yl)pyridine-2-carboxylic acid] | 570 nM | 16 nM | –
O=C(Nc1nc2ccccc2s1)c1cccc2c1CN(c1ccc(-c3cnn(Cc4cccc(F)c4F)c3)c(C(=O)O)n1)CC2 [Example 52, 6-[8-(1,3-benzothiazol-2-ylcarbamoyl)-3,4-dihydroisoquinolin-2(1H)-yl]-3-[1-(2,3-difluorobenzyl)-1H-pyrazol-4-yl]pyridine-2-carboxylic acid] | 570 nM | 18 nM | –
